Reference: article PMC7490372, “Structural bases of IMiD selectivity that emerges by 5-hydroxythalidomide” (Nature Communications, 2020)

Target: T1, cereblon (CRBN) (Homo sapiens, UniProt Q96SW2)
T1 construct: biotinylated CRBN (wheat cell-free); with SALL4
Experiment: AlphaScreen-based ternary complex formation, dose-dependent, in cell-free translation mixtures

T1 sequence (Q96SW2 whole entry): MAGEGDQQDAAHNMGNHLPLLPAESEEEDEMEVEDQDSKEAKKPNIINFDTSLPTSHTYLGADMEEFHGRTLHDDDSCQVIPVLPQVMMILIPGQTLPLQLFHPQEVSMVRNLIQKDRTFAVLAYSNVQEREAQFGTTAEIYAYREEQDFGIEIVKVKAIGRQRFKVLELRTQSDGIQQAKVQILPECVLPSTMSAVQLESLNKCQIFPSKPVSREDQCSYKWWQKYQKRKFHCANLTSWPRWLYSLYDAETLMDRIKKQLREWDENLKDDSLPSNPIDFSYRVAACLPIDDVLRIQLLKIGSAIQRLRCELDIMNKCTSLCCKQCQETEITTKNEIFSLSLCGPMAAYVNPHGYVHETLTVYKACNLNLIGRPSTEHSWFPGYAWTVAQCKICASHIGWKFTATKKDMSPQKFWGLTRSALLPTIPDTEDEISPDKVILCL
T1 sequence (Q9UJQ4 whole entry partner): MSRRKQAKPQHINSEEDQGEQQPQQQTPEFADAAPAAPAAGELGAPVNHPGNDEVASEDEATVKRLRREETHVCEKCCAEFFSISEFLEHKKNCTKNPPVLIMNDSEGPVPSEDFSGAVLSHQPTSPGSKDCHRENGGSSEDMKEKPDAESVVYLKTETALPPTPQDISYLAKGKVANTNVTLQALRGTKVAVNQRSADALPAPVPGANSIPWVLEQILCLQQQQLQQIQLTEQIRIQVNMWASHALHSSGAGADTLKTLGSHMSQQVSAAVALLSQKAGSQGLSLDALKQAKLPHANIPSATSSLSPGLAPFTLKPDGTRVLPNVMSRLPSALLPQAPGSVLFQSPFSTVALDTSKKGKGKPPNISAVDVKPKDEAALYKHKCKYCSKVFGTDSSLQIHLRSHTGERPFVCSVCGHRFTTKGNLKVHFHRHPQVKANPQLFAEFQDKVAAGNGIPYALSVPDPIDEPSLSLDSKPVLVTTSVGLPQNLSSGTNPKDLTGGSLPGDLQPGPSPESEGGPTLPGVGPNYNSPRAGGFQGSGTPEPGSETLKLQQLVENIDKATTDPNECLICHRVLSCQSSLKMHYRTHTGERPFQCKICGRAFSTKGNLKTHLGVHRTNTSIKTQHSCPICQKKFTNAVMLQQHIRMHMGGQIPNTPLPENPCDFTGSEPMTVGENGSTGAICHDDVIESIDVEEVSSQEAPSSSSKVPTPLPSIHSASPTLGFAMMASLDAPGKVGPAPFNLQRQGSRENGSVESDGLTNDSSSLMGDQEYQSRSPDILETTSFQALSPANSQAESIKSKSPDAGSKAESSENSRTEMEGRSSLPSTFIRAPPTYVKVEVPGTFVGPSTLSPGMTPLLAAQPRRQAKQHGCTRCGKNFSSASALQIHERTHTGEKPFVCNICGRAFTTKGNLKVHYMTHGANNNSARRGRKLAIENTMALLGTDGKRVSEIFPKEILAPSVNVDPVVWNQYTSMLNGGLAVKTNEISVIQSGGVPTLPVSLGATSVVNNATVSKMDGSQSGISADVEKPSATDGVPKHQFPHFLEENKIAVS

Nc1c(O)ccc2c1C(=O)N(C1CCC(=O)NC1=O)C2=O (stereo not shown) [5HP, 5-hydroxypomalidomide]
AlphaScreen-based ternary complex formation, dose-dependent, in cell-free transl: Dose-dependent interaction of CRBN with SALL4 (left) and IKZF1 (right), as observed with the titration of racemate, Pom, and 5HP
